Experimental data reported in patent publication US8889712B2, “IAP antagonists” (Bristol-Myers Squibb Company, priority 2012, dated 2014).
Counter-ions that a name gives are not always drawn. Like-named read-outs stand apart in the source and are kept apart here.

Assays:
XIAP BIR3 = molecular target: T1, XIAP BIR3 (Homo sapiens, UniProt P98170); assay: XIAP-BIR3/SMAC Homogeneous Time Resolved Fluorescence (HTRF) Assay; format: binding
T1 construct: His-BIR3 (241-356, XIAP)
Experimental: A. XIAP-BIR3/SMAC Homogeneous Time Resolved Fluorescence (HTRF) Assay Assays were performed in black, flat-bottom, 384-well plates. […] The reaction was incubated at room temperature for 60 minutes, following which 10 μl of mouse anti-6×His-terbium labeled Fab (Medarex, Cis-bio) was added to the reaction (40 μl) for an additional 30 minute incubation. […] Compounds were dissolved at 3 mM in dimethylsulfoxide (DMSO) and evaluated at eleven serially diluted concentrations. IC50 and Ki values were derived by non-linear regression analysis.

XIAP BIR2-3 = molecular target: T2, XIAP BIR2-3 (Homo sapiens, UniProt P98170, C202A/C213G); assay: XIAP-BIR2-3 dimeric SMAC Peptide Homogeneous Time Resolved Fluorescence (HTRF) Assay; format: binding
T2 construct: His-BIR2-3 (125-356, C202A/C213G, XIAP)
Experimental: B. […] Assays were performed in black, flat-bottom, 384-well plates. […] Compounds were dissolved at 3 mM in dimethylsulfoxide (DMSO) and evaluated at eleven serially diluted concentrations. IC50 and Ki values were derived by non-linear regression analysis.

[1] = 1 nM N-His-BIR3 (241-356, XIAP), 5 nM fluorescein labeled SMAC peptide, HTRF signal, read-out: XIAP BIR3 IC50
[2] = 0.5 nM N-His-BIR2-3 (125-356, C202A/C213G, XIAP), 20 nM fluorescein labeled dimeric SMAC peptide, HTRF signal, read-out: XIAP BIR2-3 IC50

T1 sequence (P98170 241-356): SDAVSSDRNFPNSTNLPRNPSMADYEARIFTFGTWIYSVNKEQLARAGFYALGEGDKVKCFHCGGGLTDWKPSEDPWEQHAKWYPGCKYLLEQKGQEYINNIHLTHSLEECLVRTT
T2 sequence (P98170 125-356 C202A/C213G): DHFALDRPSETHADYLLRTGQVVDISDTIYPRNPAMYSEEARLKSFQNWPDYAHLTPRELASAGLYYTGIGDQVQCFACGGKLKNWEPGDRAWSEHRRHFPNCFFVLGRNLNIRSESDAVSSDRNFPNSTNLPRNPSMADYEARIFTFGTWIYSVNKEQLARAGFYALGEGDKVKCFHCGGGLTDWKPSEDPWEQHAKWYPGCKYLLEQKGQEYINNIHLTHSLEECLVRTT

| Compound | IC50 (XIAP BIR3; [1]) [nM] | IC50 (XIAP BIR2-3; [2]) [nM] | IC50 (XIAP BIR3) [nM] | IC50 (XIAP BIR2-3) [nM] |
| --- | --- | --- | --- | --- |
| CN[C@@H](C)C(=O)N[C@H](C(=O)N1Cc2cc([C@H]3C[C@@H](C(=O)N[C@@H]4CCCc5ccccc54)N(C(=O)[C@@H](NC(=O)[C@H](C)NC)C(C)(C)C)C3)ccc2C[C@H]1C(=O)N[C@@H](Cc1ccccc1)C(=O)N(C)C)C(C)(C)C [Example 42, (S)-2-((S)-3,3-Dimethyl-2-((S)-2-(methylamino)propanamido)butanoyl)-7-((3R,5S)-1-((S)-3,3-dimethyl-2-((S)-2-(methylamino)propanamido)butanoyl)-5-(((R)-1,2,3,4-tetrahydronaphthalen-1-yl)carbamoyl)pyrrolidin-3-yl)-N—((S)-1-(dimethylamino)-1-oxo-3-phenylpropan-2-yl)-1,2,3,4-tetrahydroisoquinoline-3-carboxamide] | 1.6 | 1.2 |  |  |
| CCN(CC)C(=O)[C@H](Cc1ccccc1)NC(=O)[C@@H]1C[C@H](c2ccc3c(c2)CN(C(=O)[C@@H](NC(=O)[C@H](C)NC)C(C)(C)C)[C@H](C(=O)N[C@@H]2CCCc4ccccc42)C3)CN1C(=O)[C@@H](NC(=O)[C@H](C)NC)C(C)(C)C [Example 62, (S)-7-((3R,5S)-5-(((S)-1-(Diethylamino)-1-oxo-3-phenylpropan-2-yl)carbamoyl)-1-((S)-3,3-dimethyl-2-((S)-2-(methylamino)propanamido)butanoyl)pyrrolidin-3-yl)-2-((S)-3,3-dimethyl-2-((S)-2-(methylamino)propanamido)butanoyl)-N-((R)-1,2,3,4-tetrahydronaphthalen-1-yl)-1,2,3,4-tetrahydroisoquinoline-3-carboxamide] |  |  | 9.2 | 1.9 |
| CN[C@@H](C)C(=O)N[C@H](C(=O)N1Cc2ccc(C(=O)N[C@H]3C[C@@H](C(=O)N[C@@H]4CCCc5ccccc54)N(C(=O)[C@@H](NC(=O)[C@H](C)NC)C(C)(C)C)C3)cc2C[C@H]1C(=O)N[C@@H]1CCCc2ccccc21)C(C)(C)C [Example 25, (S)-2-((S)-3,3-Dimethyl-2-((S)-2-(methylamino)propanamido)butanoyl)-N6-((3S,5S)-1-((S)-3,3-dimethyl-2-((S)-2-(methylamino)propanamido)butanoyl)-5-(((R)-1,2,3,4-tetrahydronaphthalen-1-yl)carbamoyl)pyrrolidin-3-yl)-N^3—((R)-1,2,3,4-tetrahydronaphthalen-1-yl)-1,2,3,4-tetrahydroisoquinoline-3,6-dicarboxamide] | 4 | 3 |  |  |
| CN[C@@H](C)C(=O)N[C@H](C(=O)N1Cc2cc([C@H]3C[C@@H](C(=O)N[C@@H]4CCCc5ccccc54)N(C(=O)[C@@H](NC(=O)[C@H](C)NC)C(C)(C)C)C3)ccc2C[C@H]1C(=O)N[C@H](C)c1ccccc1F)C(C)(C)C [Example 23, (S)-2-((S)-3,3-Dimethyl-2-((S)-2-(methylamino)propanamido)butanoyl)-7-((3R,5S)-1-((S)-3,3-dimethyl-2-((S)-2-(methylamino)propanamido)butanoyl)-5-(((R)-1,2,3,4-tetrahydronaphthalen-1-yl)carbamoyl)pyrrolidin-3-yl)-N—((R)-1-(2-fluorophenyl)ethyl)-1,2,3,4-tetrahydroisoquinoline-3-carboxamide] | 4 | 3 |  |  |
| CN[C@@H](C)C(=O)N[C@H](C(=O)N1C[C@@H](c2ccc3c(c2)CN(C(=O)[C@@H](NC(=O)[C@H](C)NC)C(C)(C)C)[C@H](C(=O)N[C@@H]2CCCc4ccccc42)C3)C[C@H]1C(=O)N[C@@H](Cc1ccccc1)c1ncc(C)o1)C(C)(C)C [Example 81, (S)-2-((S)-3,3-Dimethyl-2-((S)-2-(methylamino)propanamido)butanoyl)-7-((3R,5S)-1-((S)-3,3-dimethyl-2-((S)-2-(methylamino)propanamido)butanoyl)-5-(((S)-1-(5-methyloxazol-2-yl)-2-phenylethyl)carbamoyl)pyrrolidin-3-yl)-N—((R)-1,2,3,4-tetrahydronaphthalen-1-yl)-1,2,3,4-tetrahydroisoquinoline-3-carboxamide] | 13.5 | 2.6 |  |  |
| CN[C@@H](C)C(=O)N[C@H](C(=O)N1CC(c2ccc3c(c2)CN(C(=O)[C@@H](NC(=O)[C@H](C)NC)C24CC5CC(CC(C5)C2)C4)[C@H](C(=O)NC2CCCc4ccccc42)C3)C[C@H]1C(=O)NC1CCCc2ccccc21)C(C)(C)C (stereo partly drawn) [Example 87, (S)-2-((S)-2-((3S,5S,7S)-Adamantan-1-yl)-2-((S)-2-(methylamino)propanamido)acetyl)-7-((3R,5S)-1-((S)-3,3-dimethyl-2-((S)-2-(methylamino)propanamido)butanoyl)-5-(((R)-1,2,3,4-tetrahydronaphthalen-1-yl)carbamoyl)pyrrolidin-3-yl)-N—((R)-1,2,3,4-tetrahydronaphthalen-1-yl)-1,2,3,4-tetrahydroisoquinoline-3-carboxamide, 2 TFA] | 7.3 | 5.9 |  |  |
| CN[C@@H](C)C(=O)N[C@@H](Cc1cc(F)cc(F)c1)C(=O)N1Cc2cc(C(=O)N[C@H]3C[C@@H](C(=O)N[C@@H]4CCCc5ccccc54)N(C(=O)[C@@H](NC(=O)[C@H](C)NC)C(C)(C)C)C3)ccc2C[C@H]1C(=O)N[C@@H]1CCCc2ccccc21 [Example 11, (S)-2-((S)-3-(3,5-Difluorophenyl)-2-((S)-2-(methylamino)propanamido)propanoyl)-N^7-((3S,5S)-1-((S)-3,3-dimethyl-2-((S)-2-(methylamino)propanamido)butanoyl)-5-(((R)-1,2,3,4-tetrahydronaphthalen-1-yl)carbamoyl)pyrrolidin-3-yl)-N^3-((R)-1,2,3,4-tetrahydronaphthalen-1-yl)-1,2,3,4-tetrahydroisoquinoline-3,7-dicarboxamide] | 25 | 10 |  |  |
| CN[C@@H](C)C(=O)N[C@H](C(=O)N1C[C@@H](c2ccc3c(c2)CN(C(=O)[C@@H](NC(=O)[C@H](C)NC)C(C)(C)C)[C@H](C(=O)N[C@@H]2CCCc4ccccc42)C3)C[C@H]1C(=O)N[C@@H](Cc1ccccc1)C(=O)O)C(C)(C)C [Example 77, (S)-2-((2S,4R)-1-((S)-3,3-Dimethyl-2-((S)-2-(methylamino)propanamido)butanoyl)-4-((S)-2-((S)-3,3-dimethyl-2-((S)-2-(methylamino)propanamido)butanoyl)-3-(((R)-1,2,3,4-tetrahydronaphthalen-1-yl)carbamoyl)-1,2,3,4-tetrahydroisoquinolin-7-yl)pyrrolidine-2-carboxamido)-3-phenylpropanoic acid] | 1.7 | 0.8 |  |  |
| CN[C@@H](C)C(=O)N[C@H](C(=O)N1C[C@@H](c2ccc3c(c2)CN(C(=O)[C@@H](NC(=O)[C@H](C)NC)C(C)(C)SCCO)[C@H](C(=O)N[C@@H]2CCCc4ccccc42)C3)C[C@H]1C(=O)N[C@@H]1CCCc2ccccc21)C(C)(C)C [Example 28, (S)-7-((3R,5S)-1-((S)-3,3-Dimethyl-2-((S)-2-(methylamino)propanamido)butanoyl)-5-(((R)-1,2,3,4-tetrahydronaphthalen-1-yl)carbamoyl)pyrrolidin-3-yl)-2-((R)-3-((2-hydroxyethyl)thio)-3-methyl-2-((S)-2-(methylamino)propanamido)butanoyl)-N—((R)-1,2,3,4-tetrahydronaphthalen-1-yl)-1,2,3,4-tetrahydroisoquinoline-3-carboxamide] | 5.1 | 2.2 |  |  |
| CN[C@@H](C)C(=O)N[C@H](C(=O)N1C[C@@H](c2ccc3c(c2)CN(C(=O)[C@@H](NC(=O)[C@H](C)NC)C(C)(C)C)[C@H](C(=O)N[C@@H]2CCCc4ccccc42)C3)C[C@H]1C(=O)N[C@@H](Cc1ccccc1)C(=O)NC(C)C)C(C)(C)C [Example 56, (S)-2-((S)-3,3-Dimethyl-2-((S)-2-(methylamino)propanamido)butanoyl)-7-((3R,5S)-1-((S)-3,3-dimethyl-2-((S)-2-(methylamino)propanamido)butanoyl)-5-(((S)-1-(isopropylamino)-1-oxo-3-phenylpropan-2-yl)carbamoyl)pyrrolidin-3-yl)-N-((R)-1,2,3,4-tetrahydronaphthalen-1-yl)-1,2,3,4-tetrahydroisoquinoline-3-carboxamide] |  |  | 8.8 | 2 |
| CN[C@@H](C)C(=O)N[C@H](C(=O)N1Cc2cc([C@H]3C[C@@H](C(=O)N[C@@H]4CCCc5ccccc54)N(C(=O)[C@@H](NC(=O)[C@H](C)NC)C(C)(C)C)C3)ccc2C[C@H]1C(=O)N[C@@H](CO)c1ccccc1F)C(C)(C)C [Example 36, (S)-2-((S)-3,3-Dimethyl-2-((S)-2-(methylamino)propanamido)butanoyl)-7-((3R,5S)-1-((S)-3,3-dimethyl-2-((S)-2-(methylamino)propanamido)butanoyl)-5-(((R)-1,2,3,4-tetrahydronaphthalen-1-yl)carbamoyl)pyrrolidin-3-yl)-N-((R)-1-(2-fluorophenyl)-2-hydroxyethyl)-1,2,3,4-tetrahydroisoquinoline-3-carboxamide] | 3.3 | 1.7 |  |  |
